One data set relates to ERK1/2. The data set can be described thus: kinase competition assay, p-ERK1/2 immunoblotting in MCF-7 cells. Conditions: 25 μM pretreatment 30 min, then E2 10 nM 30 min. Type of data set: cell-based, human. As for the experimental part:
After treatment, the cells were harvested for immunoblotting analysis. The p-ERα, total ER-α, and MAPK kinase proteins levels were detected by immunoblotting analysis.
For the kinase competition assays, the cells were treated with either 10 μM Ly294002, 25 μM PD98059, or 25 μM SP600125 (all from Tocris Cookson Inc., Ellisville, USA) before the treatment with nicotine or E2. All of the cell lines were grown in phenol red-free DMEM for 7 days before the experiments (Lewis, J. S., Thomas, T. J., Pestell, R. G., Albanese, C., Gallo, M. A., and Thomas, T. 2005. Differential effects of 16alpha-hydroxyestrone and 2-methoxyestradiol on cyclin D1 involving the transcription factor ATF-2 in MCF-7 breast cancer cells. J Mol Endocrinol 34:91-105). The DMEM medium used for these experiments contained 10% FBS that had been pretreated with dextran-coated charcoal (0.5% Norit A and 0.05% Dextran T-70) to avoid the effects of serum-derived estrogenic compounds.
Cell extracts were prepared as previously in Ho, Y. S., Lai, C. S., Liu, H. I., Ho, S. Y., Tai, C., Pan, M. H., and Wang, Y. J. 2007. Dihydrolipoic acid inhibits skin tumor promotion through anti-inflammation and anti-oxidation. Biochem Pharmacol 73:1786-1795. Fifty micrograms of protein from each sample were resolved by 12% SDS-polyacrylamide gel electrophoresis, transferred to PVDF and analyzed by western blotting. […]

For data set [1] the following is noted: cited from earlier work.
The next data set deals with p-Akt (Ser473). The data set can be described thus: p-Akt immunoblotting analysis in MCF-7 cells. Type of data set: cell-based, human. Background: In western blotting, separated proteins are transferred to a membrane and probed.
For a further data set, the system named is α9-nAChR. The data set can be described thus: α9-nAChR mRNA and protein expression by RT-PCR and immunoblotting in MCF-7 cells. The data set is classed as cell-based, human. As to conditions: nicotine 10 μM, 6 h post-treatment.
For a further data set, the system named is α9-nAChR promoter. In words: luciferase activity assay, pGL3(α9-nAChR) promoter constructs in MCF-7 cells. Type of data set: cell-based, human.
In another data set the test system is AP1 DNA-binding sites. As to conditions: nicotine 0.1-10 μM, 6 h, pGL3(AP1)5, MCF-7.

Description for AP1 DNA-binding sites: (§1) Cell lysates were harvested, and relative firefly luciferase activities were measured and normalized to renilla luciferase activities in the same cell lysates. […] The luciferase activity was assayed and normalized to the pRL-TK expression as described above. […] The data were analyzed using nonparametric tests; all P-values are two-sided.
MCF-7 cells were plated in six-well plates and incubated overnight. The following day, the cells were transiently cotransfected with 2 μg of pGL3 (α9-nAChR) promoter plasmid and 500 ng of RLTK plasmid (Promega, Madison, Wis.) using a MP-100 microporator (Digital Bio, Seoul, Korea) according to the manufacturer's instructions. […] Twenty-four hours later, the cells were lysed with 19 Reporter Lysis Buffer (Promega, Madison, Wis.) and stored at −20° C. overnight. Luciferase activity was then determined by mixing 50 µl of the cell lysate and 50 μl of the Luciferase Assay Reagent (Promega). The total luciferase light units were quantified using a HIDEX Chameleon Microplate Reader. The relative luciferase activity was normalized to that of renilla luciferase in the same cell lysates. Each luciferase assay experiment was performed three times. In this study, the luciferase activity observed in cells transfected with the empty vector was defined as a one-fold change (i.e., basal level). […]
Excerpt for p-Akt (Ser473): Both p-AKT and total (T)-AKT protein expression were detected by immunoblotting analysis. The membrane was then re-probed with a GAPDH antibody to ensure equal protein loading.
Both p-AKT and T-AKT protein expression were detected by immunoblotting analysis. The membrane was then re-probed with a GAPDH antibody to ensure equal protein loading.
Fifty micrograms of protein from each sample were resolved by 12% SDS-polyacrylamide gel electrophoresis, transferred to PVDF and analyzed by western blotting. The antibodies employed for the western blotting analysis were purchased from the following vendors: anti-Akt, anti-JNK, anti-phospho JNK, anti-estrogen receptor a (anti-ERα), anti-c-Fos, anti-ERK1/2, anti-phospho ERK1/2, and protein A/G agarose beads were purchased from Santa Cruz Biotechnology (Santa Cruz, Calif., USA); anti-GAPDH, anti-α9-nAChR, and anti-phospho ERα (Ser^167) antibodies were obtained from ABcam (Cambridge, UK); anti-phospho Akt (Ser^473, Thr^308), anti-phospho c-Jun (Ser^73), anti-phospho ERα (Ser^118), and anti-phospho ERα (Ser^104/106) antibodies were purchased from Cell Signaling Technology (Danvers, Mass.). Immunodetection was performed by probing membranes with the appropriate dilutions of specific primary antibodies at room temperature for 2 h. The membranes were then incubated at room temperature for 1 h with either alkaline phosphatase-coupled anti-mouse or anti-rabbit secondary antibodies that were purchased from Santa Cruz Biotechnology. The specific protein complexes were identified by incubating the membranes with colorigenic substrates (nitroblue tetrazolium and 5-bromo-4-chloro-3indolyl-phosphate; KPL, Inc., Gaithersburg, Md., USA). In each experiment, the membranes were also probed with an anti-GAPDH antibody as a protein loading control.
Description for α9-nAChR promoter: as §1
All of the α9-nAChR promoter-luciferase gene fusions were constructed using a pGL3-Basic vector (Promega), and suitable α9 promoter fragments were introduced into the polylinker region of the vector, upstream of the luciferase gene. These constructs were defined as pGL3(α9-nAChR). The fragments were generated using restriction enzymes and were either cloned directly into a pGL3-Basic vector or first subcloned in a pBluescript vector and then transferred into a pGL3-Basic vector.
MCF-7 cells were plated in six-well plates and incubated overnight. The following day, the cells were transiently cotransfected with 2 μg of pGL3 (α9-nAChR) promoter plasmid and 500 ng of RLTK plasmid (Promega, Madison, Wis.) using a MP-100 microporator (Digital Bio, Seoul, Korea) according to the manufacturer's instructions. […] Twenty-four hours later, the cells were lysed with 19 Reporter Lysis Buffer (Promega, Madison, Wis.) and stored at −20° C. overnight. Luciferase activity was then determined by mixing 50 µl of the cell lysate and 50 μl of the Luciferase Assay Reagent (Promega). The total luciferase light units were quantified using a HIDEX Chameleon Microplate Reader. The relative luciferase activity was normalized to that of renilla luciferase in the same cell lysates. Each luciferase assay experiment was performed three times. In this study, the luciferase activity observed in cells transfected with the empty vector was defined as a one-fold change (i.e., basal level).
To more precisely define the regulatory elements that are required by the α9-nAChR promoter for ER-induced transcriptional activation, transient-transfection experiments were conducted using a series of 5′ promoter deletion constructs in pGL3 vectors that were transfected into MCF-7 cells. […]

Regarding `COc1cccc(-c2cc(=O)c3ccccc3o2)c1N` [PD98059], the “effect on E2-induced increase in p-ERK1/2 protein levels” value in the data set on ERK1/2 is reported as “almost completely abolished”.

Take `CN1CCCC1c1cccnc1` (stereo not drawn) [nicotine]: in data set [1] (in vivo), the “nicotine absorbed systemically while smoking a cigarette” value is reported as “roughly 1.0 mg”, the “nicotine concentration in the gastric juice” value was greater than 800 ng/mL, the “nicotine concentration in the plasma” value was “approximately 15 ng/ml” and the “nicotine concentration in the saliva” value was greater than 1300 ng/mL. Further, the “share of inhaled nicotine absorbed by the body” value in data set [1] (studies using 14C-nicotine) is given as 80-90%. The “effect of combined treatment on E2-induced Akt (Ser473) phosphorylation” value in the data set with p-Akt (Ser473) (nicotine 5 μM + E2 5 nM, 15 min, MCF-7) is listed as “enhanced”. Also, in the data set on p-Akt (Ser473) (nicotine 10 μM, MCF-7), the “time to significantly increased p-Akt (Ser473) expression” value was no more than 10 min. For the same compound, in the data set with p-Akt (Ser473) (nicotine 10 μM, MCF-7, time course), the “p-Akt (Ser473) expression for the duration of the experiment” value is reported as “persistent increase”. Besides, the “minimum concentration required for p-Akt (Ser473) induction” value with p-Akt (Ser473) (within 15 min, MCF-7) was 5 µM. Also, the “α9-nAChR mRNA and protein expression levels” value in the data set on α9-nAChR is “significantly induced”. Further, the “induced responsiveness of promoter with positions -995 to -260 deleted” value in the data set with α9-nAChR promoter (E2 10 nM or nicotine 10 μM) is reported as “preserved”. The “nicotine-induced luciferase activity with promoter positions -41 to -1 deleted” value in the data set with α9-nAChR promoter (nicotine 10 μM) is on record as “abolished”. In the data set with α9-nAChR promoter (nicotine 10 μM, 24 h, empty vector = one-fold), the “induction of α9-nAChR promoter activity (luciferase), full-length construct” value is given as “greater than fourfold”. Further, the AP1-linked luciferase activity result in the data set with AP1 DNA-binding sites was “increased the AP1-linked luciferase activity in a dose-dependent manner”.

Values taken from patent publication US8980571B2, “Method of identifying a candidate compound which may inhibit α9-nAchR overexpression or estrogen receptor-dependent transcription in nicotine-derived-compound-induced breast cancer cells” (Taipei Medical University, priority 2011, dated 2015).
